Reference: US8173385B2, “Method for stabilization of peptides in a biological sample” (Kyowa Medex Co., Ltd., priority 2005, dated 2012)
Where two headings read alike, the source gives them in different places.

Tests used:
[1] = test system: substance P in human plasma; experiment: Stabilization of substance P in plasma by addition of a saccharide when frozen at −80° C.; conditions: Example 6: same additive solutions
Procedure: (§1) To 50 μL portions of human plasma prepared in the same manner as in Example 1 was added a 400 mg/mL aqueous solution of glucose (special grade; Kanto Chemical Co., Inc.) prepared with purified water (100 μL), followed by mixing. […] The concentrations of substance P in the thawed portions of sample N were measured in the same manner as in Example 1 to calculate the residual rates, which are the index for the stability of substance P in plasma.
(§2) To 50 μL portions of human plasma prepared in the same manner as in Example 1 was added a 200 pg/mL aqueous solution of substance P (50 μL) to prepare six portions of sample.
(§3) After the preparation, the samples were frozen at −80° C. and then thawed at room temperature 0 day, 3 days and 13 days after the freezing. The concentrations of substance P in the thawed samples were measured in the same manner as in Example 1 using Substance P EIA Kit (Cayman) to calculate the residual rates, which are the index for the stability of substance P in plasma.

[2] = test system: substance P in human plasma
Procedure: as §1, §2, §3

[3] = test system: neutral endopeptidase (NEP); experiment: Effect of addition of a saccharide on degradation of substance P by neutral endopeptidase (NEP); format: biochemical; conditions: for Degradation of substance P by NEP: result in words
Procedure: Similarly, samples each comprising 150 μL of human plasma, 150 μL of a 200 pg/mL aqueous solution of substance P, 300 μL of a 400 mg/mL aqueous solution of glucose and 50 μL of an enzyme solution (respective NEP concentrations; 0 U/mL, 0.1 U/mL, 1.0 U/mL and 10.0 U/mL) were prepared.
Further, samples each comprising 150 μL of human plasma, 150 μL of a 200 pg/mL aqueous solution of substance P, 300 μL of a 10 mmol/L aqueous solution of phosphoramidon and 50 μL of an enzyme solution (respective NEP concentrations; 0 U/mL, 0.1 U/mL, 1.0 U/mL and 10.0 U/mL) were prepared.

[4] = test system: substance P in human plasma; conditions: 4° C. 18 hours
Procedure: To 50 μL portions of the human plasma were respectively added a 200 mg/mL aqueous solution of xylose, a 200 mg/mL aqueous solution of glucose, a 200 mg/mL aqueous solution of mannose and a 200 mg/mL aqueous solution of galactose (100 μL each), followed by mixing.
Measurement of substance P in samples A to D and the control sample was carried out in duplicate in the following manner, using Substance P EIA Kit (Cayman) according to the manual attached to the kit.
The above kit is a kit for enzyme immunoassay by the competitive method using, as a competitive substance, substance P bound to acetylcholine esterase (substance P AchE tracer). The measurement with this kit is carried out by allowing substance P in a sample and the competitive substance to competitively react with anti-substance P antibody on a solid phase and reacting acetylcholine esterase in the competitive substance bound to the anti-substance P antibody on a solid phase with Ellman's reagent to develop color, followed by the measurement of the absorbance. Then, the concentration of substance P in the sample can be determined based on a previously prepared calibration curve. […]

[5] = Stability of substance P in aqueous solution without plasma (Substance P EIA Kit); format: physicochemical; conditions: for Concentration of substance P measured in the substance P solution: 200 pg/mL aqueous solution
Procedure: When the 200 pg/mL aqueous solution of substance P was, without being mixed with the human plasma, subjected to measurement of substance P under the present measurement conditions including incubation at 4° C. for 18 hours, the obtained value was 226.16 pg/mL. […] On the other hand, as shown in the experiment on the control sample, when the sample having the initial substance P concentration of 116.93 pg/mL was subjected to measurement under the present measurement conditions including incubation at 4° C. for 18 hours, the obtained average substance P concentration was 60.57 pg/mL.
The concentrations of substance P in the human plasma used for the preparation of the samples subjected to the incubation for 16 hours, 24 hours and 48 hours were determined to be 15.02 pg/mL, 4.95 pg/mL and 5.71 pg/mL, respectively. The concentrations of substance P in the substance P solution used for the preparation of the samples subjected to the incubation for 16 hours, 24 hours and 48 hours were determined to be 211.1 pg/mL, 208.4 pg/mL and 197.8 pg/mL, respectively. From these measurement values, the theoretical values of the concentrations of substance P in the samples were calculated in the same manner as in Example 1, and the residual rates were calculated from the theoretical values and the measurement values.

## magnesium gluconate
[1]; thawed 3 days after the freezing
  Residual rate, Day 3: 42.6%
[1]; thawed 13 days after the freezing
  Residual rate, Day 13: 40.1%

## CC(C)C[C@H](NP(=O)(O)O[C@@H]1O[C@@H](C)[C@H](O)[C@@H](O)[C@H]1O)C(=O)N[C@@H](Cc1c[nH]c2ccccc12)C(=O)O [Phosphoramidon, phosphoramidon]
[2]; human, 3 days
  Residual rate, Day 3: 29.0%
[2]; human, 13 days
  Residual rate, Day 13: 25.6%
[3]
  Degradation of substance P by NEP: inhibited

## substance P
[4]; control sample, initial substance P concentration 116.93 pg/mL
  Average substance P concentration in plasma without saccharide: 60.57 pg/mL
[4]; no saccharide, result in words
  Stability of substance P in the presence of plasma: unstable
[5]; incubation 16 hours at 4° C.
  Concentration of substance P measured in the substance P solution: 0.2111 ng/mL
[5]; incubation 24 hours at 4° C.
  Concentration of substance P measured in the substance P solution: 0.2084 ng/mL
[5]; incubation 48 hours at 4° C.
  Concentration of substance P measured in the substance P solution: 0.1978 ng/mL
[5]; 4° C. 18 hours, result in words
  Stability of substance P in the aqueous solution: stable
[5]; without human plasma, incubation at 4° C. for 18 hours
  Concentration of substance P measured in the 200 pg/mL aqueous solution of substance P: 0.22616 ng/mL
[3]; human plasma + substance P ± 400 mg/mL glucose or 10 mmol/L phosphoramidon solution, enzyme solution NEP 0 U/mL
  Residual rate of substance P, NEP concentration 0 U/mL: 100.0%
[3]; human plasma + substance P ± 400 mg/mL glucose or 10 mmol/L phosphoramidon solution, enzyme solution NEP 0.1 U/mL
  Residual rate of substance P, NEP concentration 0.1 U/mL: 102.2%
[3]; human plasma + substance P ± 400 mg/mL glucose or 10 mmol/L phosphoramidon solution, enzyme solution NEP 1.0 U/mL
  Residual rate of substance P, NEP concentration 1.0 U/mL: 93.3%
[3]; human plasma + substance P ± 400 mg/mL glucose or 10 mmol/L phosphoramidon solution, enzyme solution NEP 10.0 U/mL
  Residual rate of substance P, NEP concentration 10.0 U/mL: 84.0%
[3]
  Degradation of substance P by NEP: degraded by NEP

## O=C([O-])CN(CCN(CC(=O)[O-])CC(=O)O)CC(=O)O.[Na+].[Na+] [EDTA•2Na, ethylenediaminetetraacetic acid.disodium]
[2]
  Residual rate, Day 3: 26.4%
  Residual rate, Day 13: 32.6%
